Laboratory results taken from patent USRE49850E1, “N-(pyridin-2-yl)-4-(thiazol-5-yl)pyrimidin-2-amine derivatives as therapeutic compounds” (AUCENTRA THERAPEUTICS PTY LTD, priority 2015, dated 2024).

Key:
CDK4D1 = biological target: T1, CDK4D1 (Homo sapiens, UniProt P11802); assay: Kinase assay CDK4/D1 (radiometric or ADP Glo); format: biochemical; details: apparent Ki calculated from Km (ATP) and IC50; read-out: CDK inhibition Ki CDK4D1
T1 construct: purchased Eurofins Pharma Discovery or Reaction Biology Corporation (service)
T1 sequence (P11802 whole entry): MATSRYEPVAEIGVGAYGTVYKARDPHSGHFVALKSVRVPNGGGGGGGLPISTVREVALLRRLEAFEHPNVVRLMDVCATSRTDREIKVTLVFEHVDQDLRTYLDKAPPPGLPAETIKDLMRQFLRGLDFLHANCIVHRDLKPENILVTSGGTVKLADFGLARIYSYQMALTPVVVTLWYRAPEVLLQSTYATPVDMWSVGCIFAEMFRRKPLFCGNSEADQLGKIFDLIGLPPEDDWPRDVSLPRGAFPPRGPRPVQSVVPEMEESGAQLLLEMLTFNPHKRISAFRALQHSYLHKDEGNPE
T1 sequence (P24385 whole entry partner): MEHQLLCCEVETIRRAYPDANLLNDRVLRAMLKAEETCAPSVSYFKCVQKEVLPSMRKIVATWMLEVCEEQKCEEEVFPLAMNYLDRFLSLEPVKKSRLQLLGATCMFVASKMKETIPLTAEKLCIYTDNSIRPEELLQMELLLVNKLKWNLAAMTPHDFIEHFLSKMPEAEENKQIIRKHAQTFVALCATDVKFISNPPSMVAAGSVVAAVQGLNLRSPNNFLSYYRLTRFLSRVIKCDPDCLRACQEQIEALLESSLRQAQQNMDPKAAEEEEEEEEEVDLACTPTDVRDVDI
Protocol: (§1) Eurofins Pharma Discovery or Reaction Biology Corporation Kinase Profiler services were used to measure inhibition of CDKs and other kinases by radiometric assay. Inhibition of CDK4/D1, CDK6/D3 and CDK9/T1 were also determined in-house using ADP Glo Kinase assays (Promega Corporation, Madison, USA). Briefly, the kinase reaction for CDK4/D1 and CDK6/D3 was performed with kinase reaction buffer ([…] Tris base pH 7.5, 20 mM MgCl2, 0.4 mM DTT), 0.1 mg/ml BSA and RB-CTF substrate (retinoblastoma protein1 C-terminal fraction). For CDK9/CyclinT1, the kinase reaction was performed with standard assay buffer and Kinase Dilution Buffer and RBER-IRStide substrate. Serial dilutions of 1:3 were prepared for test compounds for 10 concentrations (from 10 μM to 0.5 nM). The kinase reactions were started by addition of ATP, incubated for 40 min at 37° C. and then stopped by adding 10 μL of ADP Glo reagent. After incubation at room temperature in the dark for 40 min, 20 μL of kinase detection reagent was added per well and incubated for 40 min. Luminescence was measured using an EnVision Multilabel plate reader (PerkinElmer, Buckinghamshire, UK). Positive and negative controls were perfonned in the presence and absence of CDK kinases, respectively. Half-maximal inhibition (IC50) values were calculated using a 4-parameter logistic non-linear regression model with Graphpad prism (Version 6.0). Apparent inhibition constants (Ki) values were calculated from Km (ATP) and IC50 values for the respective kinases.

MV4-11 = assay: Cell viability assay (resazurin, leukemia cell line) MV4-11; format: cell-based, human; details: Homo sapiens, MV4-11, 72 h; read-out: Anti-proliferative activity GI50 MV4-11
Excerpt: (§2) Compounds from Example 1 were subjected to a standard MTT (3-(4,5-dimethylthiazol-2-yl)-2,5-diphenyltetrazolium bromide) and resazurin assays on solid tumour cell lines and leukemia cell lines, respectively, as previously reported (Wang S et al., J Med Chem 47:1662-1675, 2004 and Diab S. et al. CheMedChem 9:962-972, 2014).

MDA-MB-453 = assay: Cell viability assay (MTT, solid tumour cell line) MDA-MB-453; format: cell-based, human; details: Homo sapiens, MDA-MB-453, 72 h; read-out: Anti-proliferative activity GI50 MDA-MB-453
Excerpt: as §2

CDK 2A = CDK 2A (Homo sapiens, UniProt P24941); assay: Kinase assay CDK2A (radiometric profiling service); format: biochemical; details: apparent Ki calculated from Km (ATP) and IC50; read-out: CDK inhibition Ki CDK 2A
Protocol: as §1

CDK1B = CDK1B (Homo sapiens, UniProt P06493); assay: Kinase assay CDK1B (radiometric profiling service); format: biochemical; details: apparent Ki calculated from Km (ATP) and IC50; read-out: CDK inhibition Ki CDK1B
CDK1B, sequence (P06493 whole entry): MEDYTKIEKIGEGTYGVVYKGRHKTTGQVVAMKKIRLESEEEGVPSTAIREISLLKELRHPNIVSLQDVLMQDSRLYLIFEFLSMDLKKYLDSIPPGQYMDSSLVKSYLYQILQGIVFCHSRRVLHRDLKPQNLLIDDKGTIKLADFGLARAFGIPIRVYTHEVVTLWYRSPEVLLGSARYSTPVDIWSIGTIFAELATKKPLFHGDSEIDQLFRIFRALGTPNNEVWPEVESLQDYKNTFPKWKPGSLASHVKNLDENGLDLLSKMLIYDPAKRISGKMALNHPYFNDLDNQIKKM
CDK1B, sequence (P14635 whole entry partner): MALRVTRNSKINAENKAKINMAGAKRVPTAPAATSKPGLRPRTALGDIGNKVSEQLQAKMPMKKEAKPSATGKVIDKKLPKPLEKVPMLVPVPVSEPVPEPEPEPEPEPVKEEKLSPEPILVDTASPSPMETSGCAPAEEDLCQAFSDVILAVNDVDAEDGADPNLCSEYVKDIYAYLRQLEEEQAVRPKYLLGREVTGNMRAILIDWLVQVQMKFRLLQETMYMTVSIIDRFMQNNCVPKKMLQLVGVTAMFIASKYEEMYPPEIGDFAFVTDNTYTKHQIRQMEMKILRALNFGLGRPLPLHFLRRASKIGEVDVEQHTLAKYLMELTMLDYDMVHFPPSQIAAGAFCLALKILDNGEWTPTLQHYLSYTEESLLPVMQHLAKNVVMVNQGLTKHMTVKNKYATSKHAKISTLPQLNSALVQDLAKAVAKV
Protocol: as §1

CDK6D3 = biological target: T2, CDK6D3 (Homo sapiens, UniProt Q00534); assay: Kinase assay CDK6/D3 (radiometric or ADP Glo); format: biochemical; details: apparent Ki calculated from Km (ATP) and IC50; read-out: CDK inhibition Ki CDK6D3
T2 construct: purchased Eurofins Pharma Discovery or Reaction Biology Corporation (service)
T2 sequence (Q00534 whole entry): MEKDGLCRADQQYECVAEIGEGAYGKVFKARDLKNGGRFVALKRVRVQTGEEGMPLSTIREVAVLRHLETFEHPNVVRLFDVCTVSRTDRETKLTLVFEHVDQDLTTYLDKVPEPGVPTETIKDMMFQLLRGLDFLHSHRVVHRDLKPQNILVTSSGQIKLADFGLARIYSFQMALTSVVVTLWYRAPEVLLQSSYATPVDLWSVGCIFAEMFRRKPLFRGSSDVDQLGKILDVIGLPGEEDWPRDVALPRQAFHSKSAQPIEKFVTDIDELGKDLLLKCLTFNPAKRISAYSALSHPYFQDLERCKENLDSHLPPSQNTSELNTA
T2 sequence (P30281 whole entry partner): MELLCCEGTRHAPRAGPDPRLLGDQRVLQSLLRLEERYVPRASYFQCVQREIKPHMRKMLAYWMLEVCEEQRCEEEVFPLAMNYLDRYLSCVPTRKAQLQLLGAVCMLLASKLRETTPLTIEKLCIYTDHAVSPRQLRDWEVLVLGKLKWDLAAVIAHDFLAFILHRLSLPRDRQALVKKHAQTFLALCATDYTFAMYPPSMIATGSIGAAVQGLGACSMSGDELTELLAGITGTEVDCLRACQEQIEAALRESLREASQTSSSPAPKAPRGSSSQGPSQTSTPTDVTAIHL
Protocol: as §1

CDK9T1 = biological target: T3, CDK9T1 (Homo sapiens, UniProt P50750); assay: Kinase assay CDK9/T1 (radiometric or ADP Glo); format: biochemical; details: apparent Ki calculated from Km (ATP) and IC50; read-out: CDK inhibition Ki CDK9T1
T3 construct: purchased Eurofins Pharma Discovery or Reaction Biology Corporation (service)
T3 sequence (P50750 whole entry): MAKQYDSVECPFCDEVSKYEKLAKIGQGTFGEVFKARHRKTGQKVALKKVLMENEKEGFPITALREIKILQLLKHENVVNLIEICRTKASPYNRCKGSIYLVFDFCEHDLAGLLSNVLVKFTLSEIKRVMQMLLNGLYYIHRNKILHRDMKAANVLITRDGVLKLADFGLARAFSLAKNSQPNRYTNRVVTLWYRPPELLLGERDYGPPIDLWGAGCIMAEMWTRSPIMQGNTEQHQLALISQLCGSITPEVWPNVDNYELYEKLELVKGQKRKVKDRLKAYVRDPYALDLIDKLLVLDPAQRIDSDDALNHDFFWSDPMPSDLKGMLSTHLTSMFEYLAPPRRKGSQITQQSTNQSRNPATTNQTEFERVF
T3 sequence (O60563 whole entry partner): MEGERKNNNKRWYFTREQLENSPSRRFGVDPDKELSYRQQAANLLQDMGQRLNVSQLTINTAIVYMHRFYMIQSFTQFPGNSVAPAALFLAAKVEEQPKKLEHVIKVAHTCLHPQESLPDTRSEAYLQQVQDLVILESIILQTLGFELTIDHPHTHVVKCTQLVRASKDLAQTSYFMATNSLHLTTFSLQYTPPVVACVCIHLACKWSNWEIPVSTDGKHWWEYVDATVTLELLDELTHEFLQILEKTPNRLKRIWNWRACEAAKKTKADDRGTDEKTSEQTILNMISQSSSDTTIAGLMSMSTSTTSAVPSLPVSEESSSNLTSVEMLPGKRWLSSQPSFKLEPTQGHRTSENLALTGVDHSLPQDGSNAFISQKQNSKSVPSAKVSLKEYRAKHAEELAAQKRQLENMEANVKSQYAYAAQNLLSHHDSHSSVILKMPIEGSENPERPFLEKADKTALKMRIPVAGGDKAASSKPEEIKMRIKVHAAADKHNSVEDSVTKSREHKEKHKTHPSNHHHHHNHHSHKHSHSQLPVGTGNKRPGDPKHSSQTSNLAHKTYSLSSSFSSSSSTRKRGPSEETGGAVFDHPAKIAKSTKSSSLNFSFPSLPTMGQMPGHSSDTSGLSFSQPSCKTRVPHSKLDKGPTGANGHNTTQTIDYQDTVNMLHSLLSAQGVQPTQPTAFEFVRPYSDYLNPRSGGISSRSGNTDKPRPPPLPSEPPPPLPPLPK
Protocol: as §1

Row | Structure (SMILES) | Ki (CDK4D1) [nM] | GI50 (MV4-11) [nM] | GI50 (MDA-MB-453) [nM] | Ki (CDK 2A) [nM] | Ki (CDK1B) [nM] | Ki (CDK6D3) [nM] | Ki (CDK9T1) [nM]
1 | CNc1nc(C)c(-c2nc(Nc3ccc(N4CCCCC4)cn3)ncc2F)s1 [Compound 51, 5-(5-fluoro-2-((5-(piperidin-1-yl)pyridin-2-yl)amino)pyrimidin-4-yl)-N,4-dimethylthiazol-2-amine] | > 5000 | 606 ± 38 | 463 ± 75 |  |  |  | 
2 | CNc1nc(C)c(-c2nc(Nc3ccccn3)ncc2F)s1 [Compound 54, 5-(5-fluoro-2-(pyridin-2-ylamino)pyrimidin-4-yl)-N,4-dimethylthiazol-2-amine] | > 5000 | 2160 ± 431 | 2940 ± 507 |  |  |  | 
3 | Cc1nc(NC(C)C)sc1-c1ccnc(Nc2ccc(N3CCNCC3)cn2)n1 [Compound 55, N-isopropyl-4-methyl-5-(2-((5-(piperazin-1-yl)pyridin-2-yl)amino)pyrimidin-4-yl)thiazol-2-amine] | 5 | 93 ± 10 | 31 ± 2 | 240 | 3140 | 11 | 2420
4 | Cc1nc(NC(C)C)sc1-c1ccnc(Nc2ccc(N3CCN(C)CC3)cn2)n1 [Compound 56, N-isopropyl-4-methyl-5-(2-((5-(4-methylpiperazin-1-yl)pyridin-2-yl)amino)pyrimidin-4-yl)thiazol-2-amine] | 3 | 75 ± 5 | 618 ± 193 | 399 | 3810 | 15 | 773
5 | CC(=O)N1CCN(c2ccc(Nc3nccc(-c4sc(NC(C)C)nc4C)n3)nc2)CC1 [Compound 57, 1-(4-(6-((4-(2-(isopropylamino)-4-methylthiazol-5-yl)pyrimidin-2-yl)amino)pyridin-3-yl)piperazin-1-yl)ethan-1-one] | 21 | 2070 ± 321 | 344 ± 126 | 200 | 2700 | 105 | 3720
6 | Cc1nc(NC(C)C)sc1-c1ccnc(Nc2ccc(N3CCCNCC3)cn2)n1 [Compound 59, 5-(2-((5-(1,4-diazepan-1-yl)pyridin-2-yl)amino)pyrimidin-4-yl)-N-isopropyl-4-methylthiazol-2-amine] | 16 | 255 ± 85 | 938 ± 68 | 800 | > 5000 | 28 | 925
7 | Cc1nc(NC2CCCC2)sc1-c1nc(Nc2ccc(N3CCNCC3)cn2)ncc1F [Compound 61, N-cyclopentyl-5-(5-fluoro-2-((5-(piperazin-1-yl)pyridin-2-yl)amino)pyrimidin-4-yl)-4-methylthiazol-2-amine] | 3 | 53 ± 4 | 780 ± 598 | 256 | 2240 | 7 | 787
8 | FC(F)(F)c1nc(NC2CCCC2)sc1-c1ccnc(Nc2ccc(N3CCNCC3)cn2)n1 [Compound 62, N-cyclopentyl-5-(2-((5-(piperazin-1-yl)pyridin-2-yl)amino)pyrimidin-4-yl)-4-(trifluoromethyl)thiazol-2-amine] | 8 | 2 ± 1 | 81 ± 39 | 22 | 220 | 2 | 258
9 | Cc1nc(NC2CCCC2)sc1-c1ccnc(Nc2ccc(N3CCN(C)CC3)cn2)n1 [Compound 63, N-cyclopentyl-4-methyl-5-(2-((5-(4-methylpiperazin-1-yl)pyridin-2-yl)amino)pyrimidin-4-yl)thiazol-2-amine] | 2 | 9 | 130 ± 11 | 206 | 2680 | 9 | 180
10 | CN1CCN(c2ccc(Nc3nccc(-c4sc(NC5CCCC5)nc4C(F)(F)F)n3)nc2)CC1 [Compound 65, N-cyclopentyl-5-(2-((5-(4-methylpiperazin-1-yl)pyridin-2-yl)amino)pyrimidin-4-yl)-4-(trifluoromethyl)thiazol-2-amine] | 1 | 1 ± 1 | 420 ± 120 | 22 | 241 | 3 | 831
11 | CCN1CCN(c2ccc(Nc3ncc(F)c(-c4sc(NC5CCCC5)nc4C)n3)nc2)CC1 [Compound 67, N-cyclopentyl-5-(2-((5-(4-ethylpiperazin-1-yl)pyridin-2-yl)amino)-5-fluoropyrimidin-4-yl)-4-methylthiazol-2-amine] | 2 | 13 ± 2 | 66 ± 19 | 349 | > 5000 | 6 | > 5000
12 | CC(=O)N1CCN(c2ccc(Nc3nccc(-c4sc(NC5CCCC5)nc4C)n3)nc2)CC1 [Compound 68, 1-(4-(6-((4-(2-(Cyclopentylamino)-4-methylthiazol-5-yl)pyrimidin-2-yl)amino)pyridin-3-yl)piperazin-1-yl) ethan-1-one] | 6 | 24 ± 28 | 591 ± 256 | 776 | 3250 | 93 | 286
13 | CC(=O)N1CCN(c2ccc(Nc3nccc(-c4sc(NC5CCCC5)nc4C(F)(F)F)n3)nc2)CC1 [Compound 70, 1-(4-(6-((4-(2-(cyclopentylamino)-4-(trifluoromethyl)thiazol-5-yl)pyrimidin-2-yl)amino)pyridin-3-yl)piperazin-1-yl)ethan-1-one] | 4 | 12 ± 1 | 77 ± 1 | 14 | 297 | 6 | > 5000
14 | Cc1nc(NC2CCCC2)sc1-c1ccnc(Nc2ccc(N3CCC(N)CC3)cn2)n1 [Compound 74, 5-(2-((5-(4-aminopiperidin-1-yl)pyridin-2-yl)amino)pyrimidin-4-yl)-N-cyclopentyl-4-methylthiazol-2-amine] | 3 | 22 ± 2 | 55 ± 12 | 181 | 1230 | 133 | 173
15 | Cc1nc(NC2CCCC2)sc1-c1ccnc(Nc2ccc(N3CCCNCC3)cn2)n1 [Compound 76, 5-(2-((5-(1,4-diazepan-1-yl)pyridin-2-yl)amino)pyrimidin-4-yl)-N-cyclopentyl-4-methylthiazol-2-amine] | 1 | 29 ± 2 | 102 ± 117 | 278 | 4070 | 8 | 508
16 | Cc1nc(NC2CCCC2)sc1-c1ccnc(Nc2ccc(N3CCN(S(C)(=O)=O)CC3)cn2)n1 [Compound 77] |  | 176 ± 9 | 215 ± 52 |  |  |  | 
17 | Cc1nc(NC2CCCC2)sc1-c1ccnc(Nc2ccccn2)n1 [Compound 78, N-cyclopentyl-4-methyl-5-(2-(pyridin-2-ylamino)pyrimidin-4-yl)thiazol-2-amine] | 570 | 300 ± 35 | 4380 ± 691 |  |  |  | > 5000
18 | O=CN1CCN(c2ccc(Nc3nccc(-c4sc(NC5CCCC5)nc4C(F)(F)F)n3)nc2)CC1 [Compound 79, 4-(6-((4-(2-(cyclopentylamino)-4-(trifluoromethyl)thiazol-5-yl)pyrimidin-2-yl)amino)pyridin-3-yl)piperazine-1-carbaldehyde] | 11 | 4 ± 1 | 336 ± 188 | 15 | 345 | 7 | > 5000
19 | Cc1nc(NC2CCCC2)sc1-c1nc(Nc2ccc(N3CCCNCC3)cn2)ncc1F [Compound 81, 5-(2-((5-(1,4-diazepan-1-yl)pyridin-2-yl)amino)-5-fluoropyrimidin-4-yl)-N-cyclopentyl-4-methylthiazol-2-amine] | 14 | 29 ± 2 | 83 ± 9 | 417 | > 5000 | 10 | 679
20 | CCN1CCN(Cc2ccc(Nc3nccc(-c4sc(NC5CCCC5)nc4C)n3)nc2)CC1 [Compound 83, N-cyclopentyl-5-(2-((5-((4-ethylpiperazin-1-yl)methyl)pyridin-2-yl)amino)pyrimidin-4-yl)-4-methylthiazol-2-amine] |  | 19 ± 3 | 4 ± 2 |  | > 5000 |  | 1980
